In patent publication US20240368174A1, “Antiviral Heterocyclic Compounds” (Enanta Pharmaceuticals, Inc., priority 2023, published 2024):

Each compound was assayed on HMPV clinical isolate A2 strain TN 94-49 (assay: HMPV antiviral assay, Method 1 (LLC-MK2 cells, ATP-Lite)). Conditions: human metapneumovirus, hMPV A2 TN/94-49, LLC-MK2 cells.
Type: cell-based
Description: In vitro HMPV antiviral activity was evaluated using the clinical isolate A2 strain TN 94-49 (obtained from Dr. John Williams, Vanderbilt University, Tennessee) and LLC-MK2 cells (ATCC #CCL-7), an immortalized kidney epithelial cell line from Macaca mulatta. Compounds were resuspended in dimethyl sulfoxide (DMSO) at 10 mM, serially diluted and added to a 384-well source plate. Subsequently, the compounds were diluted and transferred onto 384-well assay plates using the Echo-650 automated liquid handling system (Beckman Coulter, Indiana). The test compounds were assessed in duplicate at a top concentration of 2 μM followed by 2.5-fold serial dilutions to give a total of 10 concentration points. DMSO control wells were also included on the assay plates and were either infected or not, acting as positive and negative controls. A2 TN 94-49 virus infections were performed in-suspension with LLC-MK2 cells. The cells were washed twice with PBS and removed from the cell-culture flask with 0.25% trypsin-EDTA (Thermo Fisher Scientific, MA). The trypsin-EDTA was inactivated by resuspending in 2% fetal bovine serum (FBS) and OptiMEM (ThermoFisher Scientific, MA) containing 1% penicillin-streptomycin. Cells were pelleted by centrifuging for 5 minutes at 800 rpm, the supernatant was removed, and cells were re-suspended and washed in PBS plus 100 μg/mL CaCl2). This step was performed twice. Cells were then re-suspended in serum-free (SF)-OptiMEM containing 4 μg/mL TPCK-Trypsin (Sigma Aldrich, MO), 1% penicillin-streptomycin (ThermoFisher Scientific, MA) and 100 μg/mL CaCl2). Cells were counted and seeded at a density of 5,000 cells/well, 12.5 μL/well. Virus infections were done at a multiplicity of infection (MOI) of 0.005 with 12.5 μL added per well. Virus infections were performed in infection media which contained SF-OptiMEM, 100 μg/mL CaCl2) and 1% penicillin-streptomycin. HMPV viral stocks are suspended in infection media+5% glycerol, thus an equal volume of infection media+5% glycerol was added to uninfected wells to equalize the final % glycerol across all wells of the assay plate. The final concentration of TPCK-trypsin was 2 μg/mL. The assay plates were incubated at 37° C., 5% CO2 for 7 days. After 7 days incubation, 12.5 μL of ATP-Lite (PerkinElmer, MA) was added to each well and the raw luminescence values were determined using the Envision 2104 (Perkin Elmer, MA). The average of the raw luminescence values for the cells and virus only positive control wells was subtracted from all conditions tested and the percent cell health was determined by dividing these values by the average of the cells only negative control wells. EC50 values were then calculated by non-linear regression using a four-parameter curve logistic equation. The curve fit model employed was XLFit Dose Response One Site Model 200: y=(A+(B/(1+((x/C)^D)))), where A is the minimum y value, B is the maximum y value, C is the log EC50 value, and D is the slope factor.

SMILES	EC50 [nM]
Cc1nc2ccc(C(=O)NC[C@@](O)(c3cccc(F)c3)c3cc4c(c(-c5ccc6c(c5Cl)OC(F)(F)O6)n3)OC[C@]4(C)C(N)=O)cc2o1 [Example 284]	< 500
COc1cc(C(=O)NC[C@](O)(c2cc3c(c(-c4ccc(C(F)(F)F)c(C)c4)n2)OC[C@]3(C)C(N)=O)C2CC2)cc2cn(C3CC3)nc12 [Example 55]	> 500
Cc1nc2c(OC(F)F)cc(C(=O)NC[C@@](O)(c3cccc(F)c3)c3cc4c(c(-c5cc(Cl)c(F)cc5F)n3)OC[C@]4(C)C(N)=O)cc2cc1Br [Example 135]	> 500
COc1cc(C(=O)NC[C@@](O)(c2ccccc2)c2cc3c(c(-c4cc(C(F)(F)F)ccc4F)n2)OC[C@]3(C)C(N)=O)cc2cc(C3CC3)nn12 [Example 149]	< 500
CCNC(=O)[C@@]1(C)COc2c1cc([C@@](O)(CNC(=O)c1cc(OC)c3nn(C4CC4)cc3c1)c1ccccc1)nc2-c1cc(Cl)c(F)cc1F [Example 142]	< 500
COc1cc(C(=O)NC[C@](O)(c2cc3c(c(-c4cc(Cl)c(Cl)cc4Cl)n2)OC[C@]3(C)C(N)=O)C2CC2)cc2cn(C3CC3)nc12 [Example 62]	> 500
CNC(=O)[C@@]1(C)COc2c1cc([C@@](O)(CNC(=O)c1cc(OC)c3nn(C4CC4)cc3c1)c1ccccc1)nc2-c1cc(Cl)c(F)cc1F [Example 141]	< 500
[2H]c1c([2H])c([2H])c([C@](O)(CNC(=O)c2cc(OC)c3nn(C4CC4)cc3c2)c2cc3c(c(-c4cc(Cl)c(F)cc4F)n2)OC[C@]3(C)C(N)=O)c([2H])c1[2H] [Example 169]	< 500
COc1cc(F)ccc1-c1nc([C@@](O)(CNC(=O)c2cc(OC)c3nn(C4CC4)cc3c2)C2CC2)cc2c1OC[C@]2(C)C(N)=O [Example 67]	> 500
COc1cc(C(=O)NC[C@@](O)(c2ccccc2)c2cc3c(c(-c4cc(C(F)F)c(F)cc4F)n2)OC[C@]3(C)C(N)=O)cc2cn(C3CC3)nc12 [Example 288]	< 500
COc1cc(C(=O)NC[C@](O)(c2cc3c(c(-c4cc(Cl)c(F)cc4F)n2)OC[C@]3(C)C(N)=O)c2cnn[nH]2)cc2cn(C3CC3)nc12 [Example 180]	> 500
Cc1nc2ccc(C(=O)NC[C@@](O)(c3ccccc3)c3cc4c(c(-c5ccc(F)c(Cl)c5Cl)n3)OC[C@]4(C)C(N)=O)cc2o1 [Example 267]	< 500
[2H]C([2H])([2H])c1nc2c(OC)cc(C(=O)NC[C@@](O)(c3cccc(F)c3)c3cc4c(c(-c5ccc(F)c(Cl)c5Cl)n3)OC[C@]4(C)C(N)=O)cc2s1 [Example 272]	< 500
COc1cc(C(=O)NC[C@@](O)(c2ccccc2)c2cc3c(c(-c4cc(Cl)c(F)cc4F)n2)OC[C@]3(C)C(N)=O)cc2cc(Cl)c(C)nc12 [Example 159]	< 500
[2H]C([2H])([2H])c1nc2c(OC)cc(C(=O)NC[C@@](O)(c3ccc(F)cc3)c3cc4c(c(-c5cc(Cl)c(F)cc5F)n3)OC[C@]4(C)C(N)=O)cc2s1 [Example 16]	< 500
[2H]C([2H])([2H])c1nc2c(OC)cc(C(=O)NC[C@](O)(c3cc4c(c(-c5cc(Cl)c(F)cc5F)n3)OC[C@]4(C)C(N)=O)C3CC3)cc2s1 [Example 10]	< 500
[2H]C([2H])([2H])c1nc2c(OC)cc(C(=O)NC[C@@](O)(c3cccc(OC)c3)c3cc4c(c(-c5cc(Cl)c(F)cc5F)n3)OC[C@]4(C)C(N)=O)cc2s1 [Example 163]	< 500
COc1cc(C(=O)NC[C@@](O)(c2ccccc2)c2cc3c(c(-c4cccc(Cl)c4Cl)n2)OC[C@]3(C)C(N)=O)cc2cn(C(F)F)nc12 [Example 261]	< 500
COc1cc(C(=O)NC[C@](O)(c2cc3c(c(-c4cc(Cl)c(F)cc4F)n2)OC[C@]3(C)C(N)=O)C2CC2)cc2cc(C(F)(F)F)cnc12 [Example 1]	> 500
COc1cccc([C@](O)(CNC(=O)c2cc(OC)c3nc(C)c(Cl)cc3c2)c2cc3c(c(-c4cc(Cl)c(F)cc4F)n2)OC[C@]3(C)C(N)=O)c1 [Example 164]	< 500
COc1cc(C(=O)NC[C@](O)(c2cc3c(c(-c4cc(Cl)c(F)cc4F)n2)OC[C@]3(C)C(N)=O)C2CC2)cn2cc(C(F)F)nc12 [Example 78]	> 500
C[C@]1(C(N)=O)COc2c1cc([C@@](O)(CNC(=O)c1cc(OC(F)F)c3nn(C4CC4)cc3c1)C1CC1)nc2-c1cc(F)c(F)cc1F [Example 6]	< 500

SMILES	EC50 [nM]
COc1cc(C(=O)NC[C@@](O)(c2ccccc2)c2cc3c(c(-c4ccc5c(c4Cl)OC(F)(F)O5)n2)OC[C@]3(C)C(N)=O)cc2cn(C(F)F)nc12 [Example 253]	< 500
COc1cc(C(=O)NC[C@@](O)(c2ccccc2)c2cc3c(c(-c4ccc5c(c4Cl)OC(F)(F)O5)n2)OC[C@]3(C)C(N)=O)cc2cn(C3CC3)nc12 [Example 251]	< 500
[2H]C([2H])([2H])c1cc2cc(C(=O)NC[C@](O)(c3cc4c(c(-c5ccc(F)c(Cl)c5)n3)OC[C@]4(C)C(N)=O)C(F)(F)F)cc(OC)c2nc1C [Example 20]	> 500
COc1cc(C(=O)NC[C@@](O)(c2ccccc2)c2cc3c(c(-c4cc(Cl)c(F)cc4F)n2)OC[C@]3(C)C(=O)NC2CC2)cc2cn(C3CC3)nc12 [Example 143]	< 500
COc1cc(C(=O)NC[C@@](O)(c2ccc(F)cc2)c2cc3c(c(-c4ccc5c(c4Cl)OC(F)(F)O5)n2)OC[C@]3(C)C(N)=O)cc2cc(C(F)(F)F)cnc12 [Example 26]	> 500
COc1cc(C(=O)NC[C@@](O)(c2ccc(F)cc2)c2cc3c(c(-c4cc(Cl)c(F)cc4F)n2)OC[C@]3(C)C(N)=O)cc2cn(C(F)F)nc12 [Example 13]	< 500
COc1cc(C(=O)NC[C@@](O)(c2ccccc2)c2cc3c(c(-c4cc(Cl)c(F)cc4F)n2)OC[C@]3(C)C(N)=O)cc2cc(C(F)(F)F)cnc12 [Example 83]	< 500
COc1cc(C(=O)NC[C@@](O)(c2cc3c(c(-c4cc(F)c(F)c(F)c4Cl)n2)OC[C@]3(C)C(N)=O)C(F)(F)F)cc2cn(C3CC3)nc12 [Example 58]	> 500
COc1cc(C(=O)NC[C@@](O)(c2cccc(F)c2)c2cc3c(c(-c4ccc5c(c4Cl)OC(F)(F)O5)n2)OC[C@]3(C)C(N)=O)cc2cn(C3CC3)nc12 [Example 274]	< 500
COc1cc(C(=O)NC[C@@](O)(c2ccccc2)c2cc3c(c(-c4cc(Cl)c(F)cc4F)n2)OC[C@]3(C)C(N)=O)cc2oc(C)nc12 [Example 84]	< 500
COc1cc(C(=O)NC[C@@](O)(c2cccc(F)c2)c2cc3c(c(-c4cc(Cl)c(F)cc4F)n2)OC[C@]3(C)C(N)=O)cc2cn(C(F)F)nc12 [Example 134]	< 500
COc1cc(C(=O)NC[C@@](O)(c2ccc(F)cc2)c2cc3c(c(-c4cc(Cl)c(F)cc4F)n2)OC[C@]3(C)C(N)=O)cc2cc(Cl)c(C)nc12 [Example 17]	< 500
[2H]C([2H])([2H])c1cc2cc(C(=O)NC[C@](O)(c3cc4c(c(-c5cc(Cl)c(F)cc5F)n3)OC[C@]4(C)C(N)=O)C3CC3)cc(OC)c2nc1C([2H])([2H])[2H] [Example 29]	< 500
COc1cc(C(=O)NC[C@@](O)(c2ccccc2)c2cc3c(c(-c4ccc(F)c(Cl)c4Cl)n2)OC[C@]3(C)C(N)=O)cc2cn(C3CC3)nc12 [Example 257]	< 500
COc1cc(C(=O)NC[C@@](O)(c2ccc(F)cc2)c2cc3c(c(-c4ccc(F)c(Cl)c4Cl)n2)OC[C@]3(C)C(N)=O)cc2cn(C(F)F)nc12 [Example 42]	< 500
COc1cc(C(=O)NC[C@](O)(c2cc3c(c(-c4ccc(F)cc4O)n2)OC[C@]3(C)C(N)=O)C2CC2)cc2cn(C3CC3)nc12 [Example 63]	> 500
COc1cc(C(=O)NC[C@@](O)(c2cc3c(c(-c4cc(Cl)c(F)cc4F)n2)OC[C@]3(C)C(N)=O)c2cnn[nH]2)cc2cn(C3CC3)nc12 [Example 181]	> 500
COc1cc(C(=O)NC[C@@](O)(c2ccccc2)c2cc3c(c(-c4cc(Cl)c(F)cc4F)n2)OC[C@]3(C)C(N)=O)cc2cc(C)cnc12 [Example 80]	< 500
COc1cc(C(=O)NC[C@@](O)(c2ccccc2)c2cc3c(c(-c4cc(Cl)c(F)cc4F)n2)OC[C@]3(C)C(N)=O)cc2ccc(C)nc12 [Example 79]	< 500
COc1cc(C(=O)NC[C@@](O)(c2ccsc2)c2cc3c(c(-c4cc(F)c(F)cc4F)n2)OC[C@]3(C)C(N)=O)cc2cn(C(F)F)nc12 [Example 178]	< 500
COc1cc(C(=O)NC[C@](O)(c2cc3c(c(-c4ccc5c(c4Cl)OC(F)(F)O5)n2)OC[C@]3(C)C(N)=O)C(F)(F)F)cc2cn(C3CC3)nc12 [Example 52]	> 500
